Experimental data published in BindingDB's records for doi:10.1021/ja0727520 (University of California Berkeley, 2007).

Key:
Assay in all cases: Determination of Inhibitor Ki
Conditions in all cases: pH 7.4; 22 °C
[1] = biological target: T1, TYR_PHOSPHATASE_2 domain-containing protein (Mycobacterium tuberculosis (strain CDC 1551 / Oshkosh), UniProt P96830)
T1 sequence (P96830 whole entry): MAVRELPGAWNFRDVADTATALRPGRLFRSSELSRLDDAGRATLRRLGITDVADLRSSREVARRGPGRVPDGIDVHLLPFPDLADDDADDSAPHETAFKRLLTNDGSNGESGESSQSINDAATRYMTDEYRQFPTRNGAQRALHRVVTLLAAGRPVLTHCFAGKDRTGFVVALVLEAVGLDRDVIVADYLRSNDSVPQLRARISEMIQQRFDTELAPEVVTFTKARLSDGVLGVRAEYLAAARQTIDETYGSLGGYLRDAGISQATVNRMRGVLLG
Description: (§1) The initial rate data collected was used for determination of Ki values. For Ki determination, the kinetic values were obtained directly from nonlinear regression of substrate-velocity curves in the presence of various concentrations of inhibitor.

[2] = biological target: Dual specificity protein phosphatase 3 (Homo sapiens, UniProt P51452)
Description: as §1

[3] = biological target: T2, Low molecular weight protein-tyrosine phosphatase A (Mycobacterium tuberculosis (strain ATCC 25618 / H37Rv), UniProt P9WIA1)
T2 sequence (P9WIA1 whole entry): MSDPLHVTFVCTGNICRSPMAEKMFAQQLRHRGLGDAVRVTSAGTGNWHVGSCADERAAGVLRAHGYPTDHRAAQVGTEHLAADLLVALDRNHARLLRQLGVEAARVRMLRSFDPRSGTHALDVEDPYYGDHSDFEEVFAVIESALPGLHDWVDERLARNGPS
Description: as §1

[4] = biological target: T3, Receptor-type tyrosine-protein phosphatase C (Homo sapiens, UniProt P08575)
T3 sequence (P08575 whole entry): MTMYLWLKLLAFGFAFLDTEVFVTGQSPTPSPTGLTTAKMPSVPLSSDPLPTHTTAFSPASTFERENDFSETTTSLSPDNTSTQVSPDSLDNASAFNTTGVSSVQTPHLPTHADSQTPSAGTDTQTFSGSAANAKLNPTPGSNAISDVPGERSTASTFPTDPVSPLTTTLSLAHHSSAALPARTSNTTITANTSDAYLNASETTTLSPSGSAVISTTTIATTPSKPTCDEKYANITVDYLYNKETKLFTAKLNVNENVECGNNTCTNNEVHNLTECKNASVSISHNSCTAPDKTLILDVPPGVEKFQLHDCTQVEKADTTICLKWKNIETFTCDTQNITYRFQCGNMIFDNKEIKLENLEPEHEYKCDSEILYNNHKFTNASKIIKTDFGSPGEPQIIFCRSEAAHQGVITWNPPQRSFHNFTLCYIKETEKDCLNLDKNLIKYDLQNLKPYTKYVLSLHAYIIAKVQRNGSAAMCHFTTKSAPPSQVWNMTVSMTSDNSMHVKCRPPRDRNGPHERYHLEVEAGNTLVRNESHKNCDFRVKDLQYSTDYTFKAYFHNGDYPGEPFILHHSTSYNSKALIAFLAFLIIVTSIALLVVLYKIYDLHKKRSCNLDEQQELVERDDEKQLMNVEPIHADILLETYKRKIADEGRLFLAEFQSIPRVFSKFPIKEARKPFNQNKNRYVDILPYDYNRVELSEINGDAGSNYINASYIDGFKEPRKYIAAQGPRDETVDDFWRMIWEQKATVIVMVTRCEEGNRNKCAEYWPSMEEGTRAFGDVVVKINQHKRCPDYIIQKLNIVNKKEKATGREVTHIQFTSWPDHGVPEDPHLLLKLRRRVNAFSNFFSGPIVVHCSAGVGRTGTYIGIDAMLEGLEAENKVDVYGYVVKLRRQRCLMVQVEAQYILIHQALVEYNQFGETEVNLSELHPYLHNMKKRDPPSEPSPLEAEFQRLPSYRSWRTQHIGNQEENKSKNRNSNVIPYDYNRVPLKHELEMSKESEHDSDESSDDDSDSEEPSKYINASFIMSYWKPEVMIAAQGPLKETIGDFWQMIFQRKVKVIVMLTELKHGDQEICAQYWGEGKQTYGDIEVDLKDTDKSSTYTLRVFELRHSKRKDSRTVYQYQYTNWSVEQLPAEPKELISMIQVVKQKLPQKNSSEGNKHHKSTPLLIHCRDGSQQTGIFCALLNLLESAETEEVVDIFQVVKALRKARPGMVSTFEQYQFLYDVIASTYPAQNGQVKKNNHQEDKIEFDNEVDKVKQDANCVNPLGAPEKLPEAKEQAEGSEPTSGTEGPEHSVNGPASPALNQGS
Description: as §1

[5] = biological target: Receptor-type tyrosine-protein phosphatase F (Homo sapiens, UniProt P10586)
Description: as §1

[6] = biological target: T4, Tyrosine-protein phosphatase non-receptor type 2 (Homo sapiens, UniProt P17706)
T4 sequence (P17706 whole entry): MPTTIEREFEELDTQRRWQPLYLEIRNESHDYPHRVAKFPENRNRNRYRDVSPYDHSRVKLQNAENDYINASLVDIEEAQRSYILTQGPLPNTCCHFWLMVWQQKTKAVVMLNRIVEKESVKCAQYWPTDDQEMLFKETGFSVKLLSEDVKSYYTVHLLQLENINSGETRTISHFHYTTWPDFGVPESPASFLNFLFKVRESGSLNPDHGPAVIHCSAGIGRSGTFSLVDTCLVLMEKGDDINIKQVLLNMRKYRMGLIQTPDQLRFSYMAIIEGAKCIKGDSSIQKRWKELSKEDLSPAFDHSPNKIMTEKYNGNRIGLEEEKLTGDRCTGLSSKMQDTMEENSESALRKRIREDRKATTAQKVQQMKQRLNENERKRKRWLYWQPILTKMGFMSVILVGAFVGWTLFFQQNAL
Description: as §1

Chain of Receptor-type tyrosine-protein phosphatase F (P10586 whole entry): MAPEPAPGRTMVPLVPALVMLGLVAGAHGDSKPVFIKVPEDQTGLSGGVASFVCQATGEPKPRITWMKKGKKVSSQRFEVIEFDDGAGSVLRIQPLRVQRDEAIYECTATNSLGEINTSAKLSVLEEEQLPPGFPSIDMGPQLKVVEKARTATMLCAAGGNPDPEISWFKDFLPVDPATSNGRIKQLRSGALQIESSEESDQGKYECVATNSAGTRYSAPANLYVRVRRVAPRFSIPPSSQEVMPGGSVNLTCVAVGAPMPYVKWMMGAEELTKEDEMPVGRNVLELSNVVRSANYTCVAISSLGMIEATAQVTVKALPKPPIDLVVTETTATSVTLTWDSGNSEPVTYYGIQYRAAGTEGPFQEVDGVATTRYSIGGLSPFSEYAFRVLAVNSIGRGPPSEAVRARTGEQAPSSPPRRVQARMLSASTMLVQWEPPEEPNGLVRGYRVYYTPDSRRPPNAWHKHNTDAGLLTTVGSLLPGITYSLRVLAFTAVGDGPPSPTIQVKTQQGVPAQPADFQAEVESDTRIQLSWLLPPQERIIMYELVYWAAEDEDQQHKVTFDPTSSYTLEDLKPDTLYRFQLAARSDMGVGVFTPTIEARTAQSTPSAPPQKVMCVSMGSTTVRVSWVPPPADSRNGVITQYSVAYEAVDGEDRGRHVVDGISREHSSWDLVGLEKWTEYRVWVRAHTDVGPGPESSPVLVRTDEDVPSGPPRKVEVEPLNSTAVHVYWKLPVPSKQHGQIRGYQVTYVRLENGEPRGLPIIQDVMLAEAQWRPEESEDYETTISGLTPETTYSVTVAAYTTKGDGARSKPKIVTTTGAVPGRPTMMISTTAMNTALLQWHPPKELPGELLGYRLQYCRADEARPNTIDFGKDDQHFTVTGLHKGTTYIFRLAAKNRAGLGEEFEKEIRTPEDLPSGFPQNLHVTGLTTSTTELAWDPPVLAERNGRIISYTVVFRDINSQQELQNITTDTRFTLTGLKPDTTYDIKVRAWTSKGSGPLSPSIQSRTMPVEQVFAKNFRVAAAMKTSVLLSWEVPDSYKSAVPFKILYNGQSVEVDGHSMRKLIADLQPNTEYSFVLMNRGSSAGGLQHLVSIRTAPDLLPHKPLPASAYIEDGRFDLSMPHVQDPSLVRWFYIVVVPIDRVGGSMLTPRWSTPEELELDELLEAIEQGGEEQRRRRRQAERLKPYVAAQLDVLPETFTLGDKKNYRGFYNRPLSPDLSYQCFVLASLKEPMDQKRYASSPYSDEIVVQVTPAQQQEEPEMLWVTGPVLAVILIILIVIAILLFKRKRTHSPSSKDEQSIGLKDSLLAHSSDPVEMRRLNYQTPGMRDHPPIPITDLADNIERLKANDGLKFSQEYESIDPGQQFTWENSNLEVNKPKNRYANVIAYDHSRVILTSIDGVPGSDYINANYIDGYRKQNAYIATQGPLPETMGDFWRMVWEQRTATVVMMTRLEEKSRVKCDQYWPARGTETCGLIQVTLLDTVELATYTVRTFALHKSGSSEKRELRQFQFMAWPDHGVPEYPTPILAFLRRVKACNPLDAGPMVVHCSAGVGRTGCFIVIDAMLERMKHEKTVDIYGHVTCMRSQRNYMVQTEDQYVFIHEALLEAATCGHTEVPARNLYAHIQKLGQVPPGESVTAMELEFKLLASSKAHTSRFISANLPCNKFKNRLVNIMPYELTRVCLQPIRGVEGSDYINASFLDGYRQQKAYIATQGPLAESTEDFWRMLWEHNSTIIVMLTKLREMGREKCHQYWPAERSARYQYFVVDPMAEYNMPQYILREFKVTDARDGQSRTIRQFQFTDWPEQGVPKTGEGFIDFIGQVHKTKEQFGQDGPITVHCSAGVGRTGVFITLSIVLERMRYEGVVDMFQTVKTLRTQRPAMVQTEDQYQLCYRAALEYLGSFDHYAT
Chain of Dual specificity protein phosphatase 3 (P51452 whole entry): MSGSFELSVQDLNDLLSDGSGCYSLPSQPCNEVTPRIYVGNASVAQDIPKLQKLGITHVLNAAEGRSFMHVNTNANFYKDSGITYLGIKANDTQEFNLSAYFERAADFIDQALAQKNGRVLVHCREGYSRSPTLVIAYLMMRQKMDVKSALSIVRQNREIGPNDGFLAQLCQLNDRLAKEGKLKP

CC(C)c1cc(-c2cccc(C(F)(F)F)c2)ccc1-c1cc(C(=O)O)no1 [5-[2-(propan-2-yl)-4-[3-(trifluoromethyl)phenyl]phenyl]-1,2-oxazole-3-carboxylic acid]
Ki [1]: 0.85 µM

O=C(O)c1cc(-c2ccc(-c3ccc(F)c(C(F)(F)F)c3)cc2C2CCCCC2)on1 [5-{2-cyclohexyl-4-[4-fluoro-3-(trifluoromethyl)phenyl]phenyl}-1,2-oxazole-3-carboxylic acid]
Ki [2]: > 50 µM | Ki [3]: > 50 µM | Ki [4]: 7.7 µM | Ki [5]: 21.4 µM | Ki [6]: > 50 µM

O=C(O)c1cc(-c2ccc(-c3cccc(C(F)(F)F)c3)cc2)on1 [5-{4-[3-(trifluoromethyl)phenyl]phenyl}-1,2-oxazole-3-carboxylic acid]
Ki [1]: 2.5 µM

O=C1CC(c2ccc(-c3cccc(C(F)(F)F)c3)cc2)S(=O)(=O)N1 (centres undefined) [5-{4-[3-(trifluoromethyl)phenyl]phenyl}-1,2-thiazolidine-1,1,3-trione]
Ki [1]: 8.8 µM

CC(C)c1cc(-c2ccc(F)c(C(F)(F)F)c2)ccc1-c1cc(C(=O)O)no1 [5-{4-[4-fluoro-3-(trifluoromethyl)phenyl]-2-(propan-2-yl)phenyl}-1,2-oxazole-3-carboxylic acid]
Ki [1]: 0.5 µM
